Legend:
zinc insulin crystals = target: T1, zinc insulin crystals (Sus scrofa, UniProt P01315); experiment: dissolution times of zinc insulin crystals exposed to test solutions (microscope slide assay); format: physicochemical, pork
T1 construct: measures the dissolution times of zinc insulin crystals
Experimental: (§1) The test involved transferring pork insulin crystals to a clean microscope slide using the tip of a 25 G needle so that 10 to 30 crystals were distributed in the field of view. A 25 μl aliquot of the test solution was pipetted to form a small droplet which covered the crystals. […] The pH's of the test solutions were measured and the former were adjusted where appropiate to pH 7.5 using 1 N NaOH or 1 N HCl.

glucagon = glucagon (Homo sapiens, UniProt P01275); experiment: dissolution of glucagon crystals in test solutions (tested as for insulin); format: physicochemical; conditions: 150 mmol solution (pH 7.5) in distilled water
Experimental: as §1

Neutral pork insulin = Neutral pork insulin (Sus scrofa, UniProt P01315); conditions: 2.5, 25, 250 and 2,500 mmolar; 5 U/ml neutral pork insulin, 0.1 g copper per 10 ml, shaken at 37° C., pH 7.5, triplicate
Experimental: Biostatic water was used as the diluent. Neutral pork insulin was added to each to give a final concentration of 5 U/ml. To each sterile 10 ml vial 0.1 g of copper was added. Control vials were prepared exactly as above but no bicarbonate was added. The vials were aggitated on an Eberback shaker at 37° C. The experiment was run in triplicate at pH 7.5.

[1] = test solution 150 mmol/l, pH 7.5, 25 μl droplet on pork zinc insulin crystals

T1 sequence (P01315 25-54 limits assumed): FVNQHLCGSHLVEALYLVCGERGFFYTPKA
T1 sequence (P01315 88-108 limits assumed): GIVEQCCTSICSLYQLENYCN
glucagon, sequence (P01275 53-81 limits assumed, species assumed): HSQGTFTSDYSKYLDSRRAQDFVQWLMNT
Neutral pork insulin, sequence (P01315 25-54 limits assumed): as the sequence (P01315 25-54 limits assumed) above

Row | Structure (SMILES) | Dissolution Time ± SEM (zinc insulin crystals; [1]) [s] | fraction of insulin crystals dissolved at 300 sec (zinc insulin crystals; 25 mmol/l, at 300 sec) [%] | dissolution time of glucagon (glucagon) [s] | Dissolution Time ± SEM (zinc insulin crystals; test solution 25 mmol/l, pH 7.5) [s] | time vials remained clear (no aggregation) to date (Neutral pork insulin) [days]
1 | CC(O)C(=O)O (stereo not shown) [Lactic Acid] | > 1200 | – | – | – | –
2 | NC(N)=O [Urea] | – | 20 | – | – | –
3 | O=CO [Formic Acid] | > 1200 | – | – | – | –
4 | O=C([O-])O.[Na+] [Sodium Bicarbonate] | 50 ± 5 | – | 45 ± 12 | 360 ± 20 | ≥ 35

Source: US4423039A, “Disaggregated solutions of polypeptides, their preparation and use” (The Hospital for Sick Children, priority 1980, dated 1983)
